In patent publication US7846891B2, “Self-assembling peptides for regeneration and repair of neural tissue” (Massachusetts Institute of Technology, priority 2003, dated 2010):
Entries after “also recorded” stand apart in the source; their conditions may differ.

Columns and labels:
[1] = Self-assembly of SAP on addition to CSF in vitro; format: physicochemical; conditions: data not shown
[2] = tested on: brachium of the superior colliculus (brain wound); assay: Histology and CT-B axon tracing after transection of the brachium of the superior colliculus in adult hamsters; format: in vivo, Syrian hamster; conditions: BSC transection; for axon growth through the lesion site (CT-B tracing) / tissue reconnection / repair at the lesion site (histology): 10 ul of 1% SAP, section 2 months after injection
Method: (§1) Axon tracing method. Four days before the animals were sacrificed they were anesthetized with intraperitoneal injection of Valium (50 mg/kg) and Nembutal (10 mg/kg). […]. This was accomplished with the aid of glass micropipette (tip diameter ˜10 μm) attached to a General Valve Pico Spritzer as previously described. The subjects were then returned to their cages, under a heat lamp, and monitored until they recovered.
(§2) Histology. The animals were sacrificed with an overdose of anesthesia 4 days after the intraocular injection of CT-B and were then perfused transcardially with PBS buffer (pH 7.4) followed by 2% paraformaldehyde in 0.1M phosphate buffer (pH 7.4). The brains and eyes were removed and postfixed at 4° C. until they sank. The tissue was cut on a cryostat in 30 micron coronal sections. These sections were mounted directly on gelatin-coated slides. The mounted sections were first air dried, then washed with PBS (pH 7.4) three times at 10 min intervals, and then preblocked in PBS (pH 7.4) containing 2% Triton X-100, 2% normal rabbit serum, and 2.5% bovine serum albumin for 30 min at room temperature. The slides were then incubated with goat anti-cholaragenoid (List Biological Lab, Inc.) (1:8000 dilution)+2% Triton X-100, 2% normal rabbit serum, and 2.5% bovine serum albumin for 48 hours at room temperature. Slides were then washed in PBS (pH 7.4) for three rounds of 10 min each. Sections were incubated with fluorescent donkey anti-IgG antibody Alexa-488 (secondary antibody from Molecular Probes, Inc.) (1:200 dilution) for 1 her 30 min at room temperature in a light protected chamber. Slides were then washed in PBS (pH 7.4) 4 to 5 times at 5 min intervals. The slides were then cover-slipped with Dabco. The slides were visualized through a fluorescent microscope and pictures were taken with a Kodak DCS 620 digital camera.
At the time of surgery, animals were treated by injection of 10 ul of 1% SAP RAD16-I into the brain wound. Animals were allowed to recover from surgery and maintained under standard laboratory conditions.
. Axon tracing and histology were performed as described above to allow visualization of the lesion site and assessment of axon regrowth. FIG. 10 is a parasagittal section of the dorsal midbrain of a hamster. Rostral is left and caudual is right. The section is from an 8 month old hamster and was taken 2 months following infliction of the lesion. The bright yellow in the middle of the picture that extends from the lower left to the upper right is in the middle of the lesion site. Retinal projections show as gray. Note the axons extending through the center of the cut. […] In addition, the tissue has reconnected at the lesion site in a similar manner to that observed in the younger animals.

[3] = tested on: optic tract within the superior colliculus (brain wound); assay: Optic tract transection (knife wound in superior colliculus) in P2 hamster pups; histology and CT-B axon tracing; format: in vivo, Syrian hamster
Method: Animals and surgery. Syrian hamster pups at two days of age (P2) were anesthetized with whole-body cooling. […] At surgery, 10 animals were treated by injection into the brain wound of 10 microliters of 1% SAP RADA16-I (n-RADARADARADARADA-c; SEQ ID NO: 1) prepared by dissolving peptide in sterile water. The overlying scalp was then closed with tissue glue (cyanoacrylic). The pups were returned to the cage, placed under a heat lamp, and monitored until they recovered. After recovery the hamster pups were returned to their mother. Control animals with the same lesion included 3 with isotonic saline injection (10 microliters), and 27 earlier cases with knife cuts and no injection.
as §1
as §2, with “camera. […]” for “camera.”

[4] = tested on: brachium of the superior colliculus (brain wound); assay: Visually elicited orienting (head turning) test after transection of the brachium of the superior colliculus in adult hamsters; format: in vivo, Syrian hamster; conditions: BSC transected at 2 months of age, 10 ul of 1% SAP at surgery, testing from day 44-46, listed as SAP
Method: Thus functional recovery of severed axons can be assessed by evaluating visually elicited head turning at various times after infliction of a lesion that severs the brachium, such as those described in Example 1.
To determine the extent of return of vision the animals are tested for visually elicited orienting responses. The identity of the animal is unknown to the investigator during testing periods. Before behavioral testing, the animals are habituated to the testing environment. Videotaping of the response is accomplished by the use of an overhead Sony digital video (DV) recorder. Some of the trials are simultaneously taped from the side with another Sony DV recorder. Later the video is analyzed frame-by-frame on a 21-inch monitor. All of the cameras are time synchronized. The first type of analysis is to determine if the trial is valid or invalid. Once a trial is judged as valid it is analyzed frame by frame, which enables us to plot the position of the stimulus with respect to the initial head location. The angle of the head at the beginning of the turning movement is set to zero. […]
The y axis represents the number of times the animal turned toward the stimulus during testing, expressed as a percentage of the number of times the stimulus was presented on the side that had received the lesion and SAP treatment. […]

In the case of n-RADARADARADARADA-c [RADA16-I], the “self-assembly in CSF” value [1] was “resulted in self-assembly to form a peptide scaffold”, the “re-innervation of the SC by the severed retinofugal axons” value ([2]; 10 ul of 1% SAP at surgery) was “partial re-innervation of the SC” and the “axon growth through the lesion site (CT-B tracing)” value ([2]; listed as RAD16-I) was “axons have extended their processes to the superior colliculus”. The “tissue reconnection / repair at the lesion site (histology)” value ([2]; listed as RAD16-I) was “All of the tissue has repaired itself”, the “axon growth through the lesion site (CT-B tracing)” value ([2]; listed as SAP) was “axons growing through the site where the cut transected the brachium of the superior colliculus” and the “tissue reconnection / repair at the lesion site (histology)” value ([2]; listed as SAP) was “neural tissue reconnected across the site of the lesion”. For the same substance, the “axon regrowth across the lesion (cholera-toxin labeling)” value ([3]; 1 month hamster, lesion at P2 injected with 10 microliters of 1% SAP) was “axons have extended from a location proximal to the lesion to a distal location”, the “scar at lesion site (bright-field image)” value ([3]; 2 months after lesion and injection of SAP) was “minimal nature of the scar” and the “re-innervation of the caudal SC by the severed retinofugal axons” value ([3]; lesion at P2, 10 ul of 1% SAP) was “partial re-innervation of the caudal SC”. The “tissue reconnection across the lesion (histology)” value ([3]; lesion at P2, 10 ul of 1% SAP injected into brain wound, survival 1, 3, 6, 30 or 60 days, vs saline and no-injection controls (χ^2=34.8, df (1), p<<0.001)) was “the tissue appears to have reconnected across the lesion at all survival times” and the “behavioral recovery (response to visual stimulus)” value [4] was “significant behavioral recovery; also recorded: return of functional vision in six animals”.
